Activity calls are given as the source filed them. The rule behind the calls is not given here.
Molecular target: T1, Peroxisome proliferator-activated receptor alpha (Homo sapiens) (UniProt Q07869)
T1 sequence (whole entry): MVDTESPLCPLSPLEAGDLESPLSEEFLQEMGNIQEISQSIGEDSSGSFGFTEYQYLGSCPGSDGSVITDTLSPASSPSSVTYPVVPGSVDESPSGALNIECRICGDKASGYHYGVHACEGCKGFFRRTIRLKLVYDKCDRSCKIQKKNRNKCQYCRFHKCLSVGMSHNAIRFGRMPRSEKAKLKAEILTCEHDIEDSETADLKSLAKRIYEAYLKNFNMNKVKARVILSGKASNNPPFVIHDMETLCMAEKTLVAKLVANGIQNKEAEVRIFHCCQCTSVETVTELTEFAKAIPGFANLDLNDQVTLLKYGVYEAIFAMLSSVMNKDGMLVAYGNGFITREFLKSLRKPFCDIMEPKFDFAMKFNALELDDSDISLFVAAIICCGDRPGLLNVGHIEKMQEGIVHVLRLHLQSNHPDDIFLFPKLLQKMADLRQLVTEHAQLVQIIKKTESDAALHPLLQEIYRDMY
Assay: Transactivation of PPAR-alpha transfected in HEK293 cells at 10 uM after 24 hrs by luciferase reporter gene assay
Assay type: cell-based

- Activity: Active
Compound: CC(C)(Oc1ccc(C(=O)c2ccc(Cl)cc2)cc1)C(=O)O

Reference: ChEMBL document CHEMBL2203118, “Ethyl 2,4,6-trihydroxybenzoate is an agonistic ligand for liver X receptor that induces cholesterol efflux from macrophages without affecting lipid accumulation in HepG2 cells” (Bioorg Med Chem Lett, 2012)
